Test results published in EP0855398B1, “SESQUITERPENE DERIVATIVES HAVING ANTIVIRAL ACTIVITY” (SHIONOGI & CO., LTD., priority 1995, dated 1997).
≈ marks a conversion by molar mass, not a printed value.

Tests used:
[1] = system: Influenza virus A/WSN/33 (H1N1); test: microbe, parasite or virus in culture; format: cell-based; conditions: 72 h; viral strain: Influenza virus A/WSN/33 (H1N1); Cell: MDBK; […]; 3 days; read-out: IC50
in vitro = conditions: bovine; for CC50 at 72 h: mdbk cells

Compound	IC50 [1] [µg/mL]	CC50 at 72 h (in vitro) [µg/mL]	CC50 (in vitro) [µg/mL]
C[C@H]1CC[C@H]2C(C)(C)[C@@H](O)CC[C@]23Oc2c(c(O)cc4c2CNC4=O)C[C@]13C [(2)]	0.001 (≈ 0.00259 µM)	25 (≈ 64.9 µM)	–
C[C@H]1CC[C@H]2C(C)(C)[C@@H](O)CC[C@]23Oc2c(c(O)cc4c2C(=O)NC4=O)C[C@]13C [(32a), (6aR, 7S, 9aS, 115, 13aS)-2,3,6,6a, 7,8,9,9a, 10, 11, 12, 13-dodecahydro-5, 11-dihydroxy-6a, 7, 30, 10-tetramethyl-13-dioxo-1H-benzo[8,8a][1]benzopyrano[2,3-e]isoindole]	0.001 to 0.002 (≈ 0.0025 to 0.00501 µM)	20 (≈ 50.1 µM)	–
C[C@H]1CC[C@H]2C(C)(C)[C@H](OS(C)(=O)=O)CC[C@]23Oc2c(c(O)cc4c2CNC4=O)C[C@]13C [Compound (13b), (6a R, 7 S, 9a S, 11 R, 13a S)-2,3,6,6a, 7,8,9,9a, 10, 11, 12, 13-dodecahydro-5-hydroxy-6a, 7, 10, 10-tetramethyl-11-methanesulfonyloxy-3-oxo-1H-benzo[8,8a][1]benzopyrano[2,3-e]isoindole]	0.02 (≈ 0.0431 µM)	–	5 (≈ 10.8 µM)
C[C@H]1CC[C@H]2C(C)(C)[C@H](OS(=O)(=O)c3ccccc3)CC[C@]23Oc2c(c(O)cc4c2CNC4=O)C[C@]13C [Compound (13d), (6a R, 7 S, 9a S, 11 R, 13a S)-2,3,6,6a, 7,8,9,9a, 10, 11, 12, 13-dodecahydro-5-hydroxy-6a, 7, 10, 10-tetramethyl-3-oxo-11-phenylsulfonyloxy-1H-benzo[8,8a][1]benzopyrano[2,3-e]isoindole]	0.02 to 0.06 (≈ 0.038 to 0.114 µM)	–	10 (≈ 19 µM)
C[C@H]1CC[C@H]2C(C)(C)[C@@H](O)CC[C@]23Oc2c(c(O)cc4c2CN(C)C4=O)C[C@]13C [Compound (28a), (6aR, 7S, 9aS, 11S, 13aS)-2,3,6,6a, 7,8,9,9a, 10, 11, 12, 13-dodecahydro-5, 11-dihydroxy-2,6a, 7, 10, 10-pentamethyl-3-oxo-1H-benzo[8,8a][1]benzopyrano[2,3-e]isoindole]	0.02 (≈ 0.0501 µM)	–	10 to 20 (≈ 25 to 50.1 µM)
CCCCN1Cc2c(cc(O)c3c2O[C@@]24CC[C@H](O)C(C)(C)[C@@H]2CC[C@H](C)[C@@]4(C)C3)C1=O [Compound (28b), (6aR, 7S, 9aS, 11S, 13aS)-2-butyl-2,3,6,6a, 7,8,9,9a, 10, 11, 12, 13-dodecahydro-5, 11-dihydroxy-6a, 7, 10, 10-tetramethyl-3-oxo-1H-benzo[8,8a][1]benzopyrano[2,3-e]isoindole]	0.02 (≈ 0.0453 µM)	–	2.5 (≈ 5.66 µM)
C[C@H]1CC[C@H]2C(C)(C)[C@@H](O)CC[C@]23Oc2c(c(O)cc4c2CN(S(C)(=O)=O)C4=O)C[C@]13C [Compound (28e), (6aR, 7S, 9aS, 11S, 13aS)-2,3,6,6a, 7,8,9,9a, 10, 11, 12, 13-dodecahydro-5, 11-dihydroxy-6a, 7, 10, 10-tetramethyl-2-methanesulfonyl-3-oxo-1H-benzo[8,8a][1]benzopyrano[2,3-e]isoindole]	0.03 (≈ 0.0647 µM)	–	> 10
CC(=O)N1Cc2c(cc(O)c3c2O[C@@]24CC[C@H](O)C(C)(C)[C@@H]2CC[C@H](C)[C@@]4(C)C3)C1=O [Compound (28f), (6aR, 7S, 9aS, 115, 13aS)-2-acetyl-2,3,6,6a, 7,8,9,9a, 10, 11, 12, 13-dodecahydro-5,11-dihydroxy-6a, 7, 10, 10-tetramethyl-3-oxo-1H-benzo[8,8a][1]benzopyrano[2,3-e]isoindole]	0.02 (≈ 0.0468 µM)	> 10	–
C[C@H]1CC[C@H]2C(C)(C)[C@@H](O)CC[C@]23Oc2c(c(O)cc4c2C(O)NC4=O)C[C@]13C (stereo partly drawn) [Compound (30a), (6aR, 7S, 9aS, 11S, 13aS)-2,3,6,6a, 7,8,9,9a, 10, 11, 12, 13-dodecahydro-1,5, 11-trihydroxy-6a, 7, 10, 10-tetramethyl-3-oxo-1H-benzo[8,8a][1]benzopyrano[2,3-e]isoindole]	0.002 (≈ 0.00498 µM)	–	> 40
COC1NC(=O)c2cc(O)c3c(c21)O[C@@]12CC[C@H](O)C(C)(C)[C@@H]1CC[C@H](C)[C@@]2(C)C3 (stereo partly drawn) [Compound (30b), (6aR, 7S, 9aS, 11S, 13aS)-2,3,6,6a, 7,8,9,9a, 10, 11, 12, 13-dodecahydro-5, 11-dihydroxy-1-methoxy-6a, 7, 10, 10-tetramethyl-3-oxo-1H-benzo[8,8a][1]benzopyrano[2,3-e]isoindole]	0.04 (≈ 0.0963 µM)	–	20 (≈ 48.1 µM)
CCCOC1NC(=O)c2cc(O)c3c(c21)O[C@@]12CC[C@H](O)C(C)(C)[C@@H]1CC[C@H](C)[C@@]2(C)C3 (stereo partly drawn) [Compound (30c), (6aR, 7S, 9aS, 11S, 13aS)-2,3,6,6a, 7,8,9,9a, 10, 11, 12, 13-dodecahydro-5, 11-dihydroxy-1-propoxy-6a, 7, 10, 10-tetramethyl-3-oxo-1H-benzo[8,8a][1]benzopyrano[2,3-e]isoindole]	0.04 (≈ 0.0902 µM)	–	20 (≈ 45.1 µM)
C[C@H]1CC[C@H]2C(C)(C)[C@@H](O)CC[C@]23Oc2c(c(O)cc4c2C(=O)N(C)C4=O)C[C@]13C [Compound (32b), (6aR, 7S, 9aS, 11S, 13aS)-2,3,6,6a, 7,8,9,9a, 10, 11, 12, 13-dodecahydro-5, 11-dihydroxy-2,6a, 7, 10, 10-pentamethyl-13-dioxo-1H-benzo[8,8a][1]benzopyrano[2,3-e]isoindole]	0.04 (≈ 0.0967 µM)	10 (≈ 24.2 µM)	–
CCCCN1C(=O)c2cc(O)c3c(c2C1=O)O[C@@]12CC[C@H](O)C(C)(C)[C@@H]1CC[C@H](C)[C@@]2(C)C3 [Compound (32c), (6aR, 7S, 9aS, 11S, 13aS)-2-butyl-2,3,6,6a, 7,8,9,9a, 10, 11, 12, 13-dodecahydro-5, 11-dihydroxy-6a, 7, 10, 10-tetramethyl-13-dioxo-1H-benzo[8,8a][1]benzopyrano[2,3-e]isoindole]	0.04 to 0.08 (≈ 0.0878 to 0.176 µM)	5 (≈ 11 µM)	–
C[C@H]1CC[C@H]2C(C)(C)[C@@H](O)CC[C@]23Oc2c(c(O)cc4c2CNC4)C[C@]13C [Compound (34a), (6aR, 7S, 9aS, 11S, 13aS)-2,3,6,6a, 7,8,9,9a, 10, 11, 12, 13-dodecahydro-5, 11-dihydroxy-6a, 7,10,10-tetramethyl-1H-benzo[8,8a][1]benzopyrano[2,3-e]isoindole]	0.04 (≈ 0.108 µM)	–	> 10
C[C@H]1CC[C@H]2C(C)(C)[C@@H](OC(=O)c3cccnc3)CC[C@]23Oc2c(c(O)cc4c2CNC4=O)C[C@]13C [Compound (35a), (6aR, 7S, 9aS, 11S, 13aS)-2,3,6,6a, 7,8,9,9a, 10, 11, 12, 13-dodecahydro-5-hydroxy-6a, 7, 10, 10-tetramethyl-3-oxo-11-[(3-pyridyl)carbonyloxy]-1H-benzo[8,8a][1]benzopyrano[2,3-e]isoindole]	0.001 (≈ 0.00204 µM)	–	10 (≈ 20.4 µM)
C[C@H]1CC[C@H]2C(C)(C)[C@@H](OC(=O)c3cnccn3)CC[C@]23Oc2c(c(O)cc4c2CNC4=O)C[C@]13C [Compound (35b), (6aR, 7S, 9aS, 11S, 13aS)-2,3,6,6a, 7,8,9,9a, 10, 11, 12, 13-dodecahydro-5-hydroxy-6a, 7, 10, 10-tetramethyl-3-oxo-11-[(2-pyrazyl)carbonyloxy]-1H-benzo[8,8a][1]benzopyrano[2,3-e]isoindole]	0.002 to 0.004 (≈ 0.00407 to 0.00814 µM)	10 (≈ 20.3 µM)	–
C[C@H]1CC[C@H]2C(C)(C)C=CC[C@]23Oc2c(c(O)cc4c2CNC4=O)C[C@]13C [Compound (41a), (6a R, 7 S, 9a S, 13a S)-2,3,6,6a, 7,8,9,9a, 10, 13-decahydro-5-hydroxy-6a, 7, 10, 10-tetramethyl-3-oxo-1H-benzo[8,8a][1]benzopyrano[2,3-e]isoindole]	0.002 (≈ 0.00544 µM)	–	5 (≈ 13.6 µM)
C[C@H]1CC[C@H]2C(C)(C)CCC[C@]23Oc2c(c(O)cc4c2CNC4=O)C[C@]13C [Compound (42), (6a R, 7 S, 9a S, 13a S)-2,3,6,6a, 7,8,9,9a, 10, 11, 12, 13-dodecahydro-5-hydroxy-6a, 7, 10, 10-tetramethyl-3-oxo-1H-benzo [8,8a] [1] benzopyrano[2,3-e]isoindole]	0.002 (≈ 0.00541 µM)	–	5 (≈ 13.5 µM)
C[C@H]1CC[C@H]2C(C)(C)[C@H]3O[C@H]3C[C@]23Oc2c(c(O)cc4c2CNC4=O)C[C@]13C [Compound (43a), (6a R, 7 S, 9a S, 11 R, 12 S, 13a S)-11,12-epoxy-2,3,6,6a, 7,8,9,9a, 10, 11, 12, 13-dodecahydro-5-hydroxy-6a, 7, 10, 10-tetramethyl-3-oxo-1H-benzo[8,8a][1]benzopyrano[2,3-e]isoindole]	0.001 to 0.002 (≈ 0.00261 to 0.00522 µM)	–	40 (≈ 104 µM)
C[C@H]1CC[C@H]2C(C)(C)[C@@H](N)CC[C@]23Oc2c(c(O)cc4c2CNC4=O)C[C@]13C [Compound (47a), (6aR, 7S, 9aS, 11S, 13aS)-11-amino-2,3,6,6a, 7,8,9,9a, 10, 11, 12, 13-dodecahydro-5-hydroxy-6a, 7, 10, 10-tetramethyl-3-oxo-1H-benzo[8,8a][1]benzopyrano[2,3-e]isoindole]	0.02 (≈ 0.052 µM)	–	> 10
CC(=O)N[C@H]1CC[C@@]23Oc4c(c(O)cc5c4CNC5=O)C[C@]2(C)[C@@H](C)CC[C@H]3C1(C)C [Compound (47b), (6aR, 7S, 9aS, 11S, 13aS)-11-acetylamino-2,3,6,6a, 7,8,9,9a, 10, 11, 12, 13-dodecahydro-5-hydroxy-6a, 7, 10, 10-tetramethyl-3-oxo-1H-benzo[8,8a][1]benzopyrano[2,3-e]isoindole]	0.02 (≈ 0.0469 µM)	–	> 10
C[C@H]1CC[C@H]2C(C)(C)[C@@H](NS(C)(=O)=O)CC[C@]23Oc2c(c(O)cc4c2CNC4=O)C[C@]13C [Compound (47c), (6aR, 7S, 9aS, 11S, 13aS)-2,3,6,6a, 7,8,9,9a, 10, 11, 12, 13-dodecahydro-5-hydroxy-6a, 7, 10, 10-tetramethyl-11-methanesulfonylamino-3-oxo-1H-benzo[8,8a][1]benzopyrano[2,3-e]isoindole]	0.01 (≈ 0.0216 µM)	–	> 10
C[C@H]1CC[C@H]2C(C)(C)[C@@H](NS(=O)(=O)c3ccccc3)CC[C@]23Oc2c(c(O)cc4c2CNC4=O)C[C@]13C [Compound (47d), (6aR, 7S, 9aS, 11S, 13aS)-2,3,6,6a, 7,8,9,9a, 10, 11, 12, 13-dodecahydro-5-hydroxy-6a, 7, 10, 10-tetramethyl-11-phenylsulfonylamino-3-oxo-1H-benzo[8,8a][1]benzopyrano[2,3-e]isoindole]	0.003 (≈ 0.00572 µM)	–	5 to 10 (≈ 9.53 to 19.1 µM)
